Experimental data: patent US20050026836A1, “Composition for the treatment of damaged tissue” (priority 1999, published 2005)

Test system: uPA and MMP-3
Experiment: Inhibition of uPA and MMP-3-mediated KGF-2 degradation (dual protease assay)
Type: biochemical, human
Conditions: uPA and MMP-3 together / KGF-2; inhibitors used (100 μM), alone or in combination
Description: The extent of proteolysis of the growth factors was assayed by incubating TGF-β2, VEGF, PDGF-BB and KGF-2 with the proteases uPA, plasmin, MMP-3 and MMP-13 in assay buffer (either uPA/plasmin buffer, 50 mM tris-HCl, pH 7.4 or MMP assay buffer, 100 mM Tris, 10 mM NaCl, 10 mM CaCl2, 0.05% (w/v) Brij 35, pH 7.5). […] The growth factors were added to the incubation mixture at a final concentration of […], unless otherwise stated.
The effects of uPA were determined by incubation at a typical final concentration of 25 μg/ml (1500 U/ml) with each growth factor. The effects of plasmin were determined at a typical final concentration of 0.1 mg/ml by incubation with the individual growth factors in assay buffer. MMP-3 and -13 were incubated at a typical final concentration of 10 nM with the growth factors in assay buffer. Dual protease assays carried out with uPA and MMP-3 together were performed in 100 mM Tris, […], 10 mM CaCl2, 0.05% (w/v) Brij 35, pH 7.5. All incubations were performed in siliconised tubes (Sigma Aldrich, UK).
The inhibitors used in these experiments were compound 9454, compound 9470 and compound 5214. These were dissolved in DMSO at a concentration of 10 mM. Typical final concentrations for these inhibitors were in the range of 100 μM to 10 nM. Aprotinin was dissolved in the Tris buffer at 10 mg/ml and used at a typical concentration of 10 μg/ml. […]

For `COC[C@@H](NC(=O)[C@@H](NC(=O)[C@H](CCCc1ccc(-c2cccc(OC)c2)c(C)c1)CC(=O)O)C(C)(C)C)c1ccccc1` [compound 9454, (3R)-3-({[(1S)-2,2-Dimethyl-1-({[(1S)-2-methoxy-1-phenylethyl]amino}carbonyl)propyl]amino}carbonyl)-6-(3′-methoxy-2-methylbiphen-4-yl)hexanoic acid], the “Percentage inhibition of proteolysis” value was 16.3.
